This is an account of results in US7282150B2, “Method of extracting and method of purifying an effective substance” (Ezaki Glico Co., Ltd., priority 2001, dated 2007).

SMILES strings stand for the structures.

Data set [1] is described as follows: Extraction from aqueous 30% glucose solution with tetrahydrofuran or acetonitrile (absorbance at 280 nm of aqueous phase). To be noted: single extraction; for starting amount extracted in the tetrahydrofuran phase: 10 ml THF + 10 ml aqueous solution containing 30% glucose; for starting amount extracted in the acetonitrile phase: 10 ml acetonitrile + 10 ml aqueous solution containing 30% glucose. Type of data set: physicochemical. The method, then:
(§1) 1 g of a mixture of catechins (SUNPHENON®; manufactured by Taiyo Kagaku Co., Ltd.) was dissolved in 100 ml of an aqueous solution containing 30% glucose to obtain a sample aqueous solution. The absorbance at 280 nm of the sample aqueous solution was measured. […] Thereafter, the mixture was allowed to stand for 30 minutes. […] The lower phase (aqueous phase) was recovered, and the volume and the absorbance at 280 nm thereof were measured. The amount of the catechins extracted in the upper phase (polar organic solvent phase) was calculated from a reduction in the absorbance at 280 nm of the lower phase and the solution volume of the lower phase.
This additional extraction operation to Example 1a was conducted except for use of 10 ml of acetonitrile instead of 10 ml of tetrahydrofuran.
as §1, with “of hesperidin glycosides (manufactured” for “of a mixture of catechins (SUNPHENON®; manufactured”, “by Toyo Sugar Refining” for “by Taiyo Kagaku”, “Ltd.) were” for “Ltd.) was”, “of hesperidin glycosides” for “of the catechins”, “phase. […] Further, similar operations and measurements were performed twice more by adding 5 ml of tetrahydrofuran to the aqueous phase recovered after the tetrahydrofuran extraction.” for “phase.”
This additional extraction operation to Example 3a was conducted except for use of 10 ml of acetonitrile instead of 10 ml of tetrahydrofuran.
(§2) 1 g of salicin was dissolved in 100 ml of an aqueous solution containing 30% glucose to obtain a sample aqueous solution. The absorbance at 280 nm of the sample aqueous solution was measured. […] Thereafter, the mixture was allowed to stand for 30 minutes. […] The lower phase (aqueous phase) was recovered, and the volume and the absorbance at 280 nm thereof were measured. The amount of salicin extracted in the upper phase (polar organic solvent phase) was calculated from a reduction in the absorbance at 280 nm of the lower phase and the solution volume of the lower phase.
This additional extraction operation to Example 5a was conducted except for use of 10 ml of acetonitrile instead of 10 ml of tetrahydrofuran.
(§3) 1 g of caffeic acid was dissolved in 100 ml of an aqueous solution containing 30% glucose to obtain a sample aqueous solution. The absorbance at 280 nm of the sample aqueous solution was measured. […] Thereafter, the mixture was allowed to stand for 30 minutes. […] The lower phase (aqueous phase) was recovered, and the volume and the absorbance at 280 nm thereof were measured. The amount of caffeic acid extracted in the upper phase (polar organic solvent phase) was calculated from a reduction in the absorbance at 280 nm of the lower phase and the solution volume of the lower phase.
This additional extraction operation to Example 7a was conducted except for use of 10 ml of acetonitrile instead of 10 ml of tetrahydrofuran.
(§4) 1 g of salicyl alcohol was dissolved in 100 ml of an aqueous solution containing 30% glucose to obtain a sample aqueous solution. The absorbance at 280 nm of the sample aqueous solution was measured. […] Thereafter, the mixture was allowed to stand for 30 minutes. […] The lower phase (aqueous phase) was recovered, and the volume and the absorbance at 280 nm thereof were measured. The amount of salicyl alcohol extracted in the upper phase (polar organic solvent phase) was calculated from a reduction in the absorbance at 280 nm of the lower phase and the solution volume of the lower phase.
This additional extraction operation to Example 9a was conducted except for use of 10 ml of acetonitrile instead of 10 ml of tetrahydrofuran.

Data set [2] is described as follows: Extraction from aqueous 30% glucose + 10% sodium chloride solution with acetone or isopropanol (absorbance at 280 nm of aqueous phase). Type of data set: physicochemical. To be noted: single extraction; for starting amount extracted in the acetone phase: 10 ml acetone + 10 ml aqueous solution containing 30% glucose and 10% sodium chloride; for starting amount extracted in the isopropanol phase: 10 ml isopropanol + 10 ml aqueous solution containing 30% glucose and 10% sodium chloride. The method, then: as §1, with “Kagaku)” for “Kagaku Co., Ltd.)”, “glucose and 10% sodium chloride” for “glucose”
This additional extraction operation to Example 2a was conducted except for use of 10 ml of isopropanol instead of 10 ml of acetone.
as §1, with “of hesperidin glycosides (Toyo Sugar Refining” for “of a mixture of catechins (SUNPHENON®; manufactured by Taiyo Kagaku”, “Ltd.) were” for “Ltd.) was”, “glucose and 10% sodium chloride” for “glucose”, “of hesperidin glycosides” for “of the catechins”, “phase. […] Further, similar operations and measurements were performed twice more by adding 5 ml of acetone to the aqueous phase recovered after the acetone extraction.” for “phase.”
This additional extraction operation to Example 4a was conducted except for use of 10 ml of isopropanol instead of 10 ml of acetone.
as §2, with “glucose and 10% sodium chloride” for “glucose”
This additional extraction operation to Example 6a was conducted except for use of 10 ml of isopropanol instead of 10 ml of acetone.
as §3, with “glucose and 10% sodium chloride” for “glucose”
This additional extraction operation to Example 8a was conducted except for use of 10 ml of isopropanol instead of 10 ml of acetone.
as §4, with “0.1 g” for “1 g”, “glucose and 10% sodium chloride” for “glucose”
This additional extraction operation to Example 10a was conducted except for use of 10 ml of isopropanol instead of 10 ml of acetone.

For data set [3] the following is noted: cited from earlier work.
Data set [4] is described as follows: THF extraction of glucoamylase (XL-4) treated glycosylation reaction solution. To be noted: 1 ml + 1 ml THF. It counts as physicochemical. The method, then: Thereafter, the mixture was incubated at 45° C. for 3 or 4 hours. After the incubation, the contents of glucose and maltose in the solution were confirmed by a HPLC analysis method. […] Glucose and maltose in the eluate were detected by a RI detector. […] After shaking, the mixture was allowed to stand for 1 hour. […] The aqueous phase was recovered. […] The amounts of glucose and maltose were measured by an HPLC analysis method using the aqueous phase. […] Glucose and maltose in the eluate were detected by a RI detector. […] Based on the obtained results and the above-described glucose concentration, maltose concentration and HQG concentration before extraction with THF, the extraction rate to the THF phase was calculated.

A short description of data set [5]: THF extraction of unconcentrated or concentrated glucoamylase-treated glycosylation reaction solution. It counts as physicochemical. To be noted: for Extraction rate (%), THF phase total: three THF extractions, 30° C. The method, then:
Thereafter, glucoamylase treatment was performed at 45° C. for 4 hours, thereby obtaining a reaction solution. […] Extraction was conducted under a condition of 30° C. The mixture was allowed to stand for 1 hour. The mixture was separated into two phases. The upper THF phase was recovered. […] The obtained THF phases were combined together. Note that although an intermediate layer was generated in the concentrate during the phase separation, the intermediate layer was included in the aqueous phase.

Data set [6] can be described thus: Influence of temperature on extraction to a tetrahydrofuran phase. It counts as physicochemical. To be noted: aqueous phase made up to 5 ml. The method, then:
Thereafter, the mixture was incubated at 45° C. for 4 hours to obtain a post-glucoamylase treatment reaction solution. […] Thereafter, the mixture was centrifuged at 3000 rpm for 5 minutes. […] The aqueous phase was recovered.

The mark [7] stands for this setting: unconcentrated amylase treatment reaction solution.

As for `OCc1ccccc1O[C@@H]1O[C@H](CO)[C@@H](O)[C@H](O)[C@H]1O` [salicin], in data set [1], the “starting amount extracted in the tetrahydrofuran phase” value was 96.5% and the “starting amount extracted in the acetonitrile phase” value worked out at 98.1%. In data set [2], the “starting amount extracted in the acetone phase” value was found to be 58.0% and the “starting amount extracted in the isopropanol phase” value was 97.0%.

For `C[C@@H]1O[C@@H](O[C@H]2[C@H](Oc3cc(O)c4c(c3)O[C@H](c3ccc(O)cc3)CC4=O)O[C@H](CO)[C@@H](O)[C@@H]2O)[C@H](O)[C@H](O)[C@H]1O` [naringin], the solubility in water entry in data set [3] is listed as “poorly soluble in water”.

As for `O=C(O)/C=C/c1ccc(O)c(O)c1` [caffeic acid], in data set [1], the “starting amount extracted in the tetrahydrofuran phase” value amounted to 88.6% and the “starting amount extracted in the acetonitrile phase” value came to 76.2%. In addition, in data set [2], the “starting amount extracted in the acetone phase” value is listed as 78.2% and the “starting amount extracted in the isopropanol phase” value turned out to be 87.2%.

Regarding `COc1ccc([C@@H]2CC(=O)c3c(O)cc(O[C@@H]4O[C@H](CO)[C@@H](O)[C@H](O)[C@H]4O[C@@H]4O[C@@H](C)[C@H](O)[C@@H](O)[C@H]4O)cc3O2)cc1O` [neohesperidin], the solubility in water result in data set [3] is “poorly soluble in water”.

With `OC[C@H]1O[C@H](O[C@H]2[C@H](O)[C@@H](O)C(O)O[C@@H]2CO)[C@H](O)[C@@H](O)[C@@H]1O` (mixture of isomers) [Maltose, maltose], the “Extraction rate to THF (%)” value was 38.6% in data set [4] ((XL-4) 1-fold glucoamylase treatment solution), 33.0% in data set [4] ((XL-4) 1.5-fold glucoamylase treatment solution) and 36.4% in data set [4] ((XL-4) 2-fold glucoamylase treatment solution). In addition, the “Corrected concentration (equivalent in 5 ml) %, THF phase total” value in data set [5] (70% concentrate) amounted to 0%; in data set [5] (80% concentrate) it was 0%; in data set [5] (setting [7]), 0.1%. Besides, the “Extraction rate (%), THF phase total” value in data set [5] (70% concentrate) amounted to 0%; in data set [5] (80% concentrate), 0%; in data set [5] (setting [7]), 3.2%.

`Oc1ccc(O)cc1` [HQ, hydroquinone]: the “concentration of the aqueous phase after THF extraction” value in data set [6] (3° C.) worked out at 0.9%; in data set [6] (10° C.), 0.7%; in data set [6] (20° C.), 1.0%; in data set [6] (22° C.), 1.0%; in data set [6] (30° C.) it was 1.0%; in data set [6] (45° C.), 1.2%.

On to `C[C@@H]1O[C@@H](OC[C@H]2O[C@@H](Oc3c(-c4ccc(O)c(O)c4)oc4cc(O)cc(O)c4c3=O)[C@H](O)[C@@H](O)[C@@H]2O)[C@H](O)[C@H](O)[C@H]1O` [rutin], for which the solubility in acetone entry in data set [3] (acetone) was “insoluble in acetone”. Also, in data set [3], the solubility in water result is given as “poorly soluble in water”.

Consider `OCc1ccccc1O` [salicyl alcohol], for which, in data set [1], the “starting amount extracted in the tetrahydrofuran phase” value is 98.7% and the “starting amount extracted in the acetonitrile phase” value stood at 98.2%. Further, in data set [2], the “starting amount extracted in the acetone phase” value came out at 87.7% and the “starting amount extracted in the isopropanol phase” value was found to be 98.7%.
